Test results published in patent US11191769B2, “Fused thiophene compounds” (BioTheryX, Inc., priority 2018, dated 2021).

Key:
Format in all cases: cell-based
[1] = target: T1, IKAROS (Homo sapiens, UniProt Q13422+Q96SW2); assay: IKAROS degradation assay (Western blot, MV-4-11 cells); details: 6-8 hours; for IKAROS % degradation at 1 µM: MV4-11, 1 μM
T1 construct: endogenous in cells; host or cells: MV-4-11
Procedure: (§1) MV-4-11 cells were grown in RPMI 1640 media supplemented with 10% fetal bovine serum, streptomycin and penicillin.
(§2) Cells were cultured at approximately 10^6 cells per mL and incubated in DMSO or the indicated compound for 6-8 hours. Whole cell extracts were prepared using RIPA buffer according to manufacturer's protocol (Pierce). Briefly, 3×10^6 cells were washed once in PBS, the cell pellets were resuspended in RIPA buffer and allowed to incubate for 15 minutes on ice. Cells debris was removed by centrifugation and the cleared whole cell lysates were transferred to new tubes for further analysis.
(§3) For Western blot analysis, whole cell protein extracts were separated on 4-12% SDS-polyacrylamide gels, transferred to nitrocellulose and probed with the indicated primary antibodies. Membranes were subsequently washed and probed with the appropriate IRDye secondary antibodies (LI-COR). The signal was detected using the Odyssey Imaging System (LI-COR).
(§4) The following antibodies were used in these studies: Anti-eRF3/GSPT1: Abcam, ab126090 (Cambridge, Mass.); Anti-Ikaros: Abcam, ab191394 (Cambridge, Mass.); Anti-CK1α: Abcam, ab108296 (Cambridge, Mass.); β-actin (8H10D10) mouse monoclonal antibody: Cell Signaling Technology, #3700 (Danvers, Mass.); IRDye 680RD Goat anti-rabbit antibody: LI-COR, 926-68071 (Lincoln, Nebr.); IRDye 800CW Goat anti-mouse antibody: LI-COR, 926-32210 (Lincoln, Nebr.).
(§5) In each of Tables 1-4, the % degradation values are reported as “A”, “B”, “C”, or “D”. “A” represents a % degradation value of less than 25% (value<25%). “B” represents a % degradation value of equal to or more than 25% and less than 50% (25%≤value<50%). “C” represents a % degradation value of equal to or more than 50% and less than 75% (50%≤value <75%). “D” represents a % degradation value of equal to or more than 75% (value≥75%).

[2] = target: T2, CK1α (Homo sapiens, UniProt P48729+Q96SW2); assay: CK1α degradation assay (Western blot, MV-4-11 cells); details: MV4-11, 6-8 hours
T2 construct: Whole cell extracts were prepared using RIPA buffer; endogenous in cells; host or cells: MV-4-11
Procedure: as §1, §2, §3, §4, §5

[3] = target: T3, GSPT1 (Homo sapiens, UniProt P15170+Q96SW2); assay: GSPT1 degradation assay (Western blot, MV-4-11 cells); details: 6-8 hours
T3 construct: Whole cell extracts were prepared using RIPA buffer; endogenous in cells; host or cells: MV-4-11
Procedure: as §1, §2, §3, §4, §5

[4] = test system: IL-1β; assay: IL-1β inhibition assay, LPS-induced PBMCs or CD14+ monocytes, Meso Scale; details: 1 h pretreatment, 100 ng/mL LPS 18-24 h, supernatant, read-out: I1-1β % Inhibition at 10 μM
Procedure: (§6) Either frozen primary blood mononuclear cells (PBMCs) or frozen CD14+ mobilized peripheral blood monocytes were purchased from AllCells (PB003F, Normal Peripheral Blood MNC (Alameda, Calif.)). Cells were quick thawed, washed 1-time with RPMI-1640 (10% FBS/1% Pen-Strep) and plated in 96 well plates at 200,000 cells per well. Cells were pretreated with DMSO only or with the indicated compound for 1 h and then induced with 100 ng/mL lipopolysaccharide (LPS) for 18-24 h. The supernatant was analyzed for IL-1β, IL-6, and TNFα, using Meso Scale assay according to manufacturer's protocol. The negative control wells were treated with DMSO.
(§7) In each of Tables 5-7, the % inhibition values are reported as “A”, “B”, “C”, or “D”. “A” represents a % inhibition value of less than 50% (value <50%). “B” represents a % inhibition value of equal to or more than 50% and less than 70% (50%≤value<70%). “C” represents a % inhibition value of equal to or more than 70% and less than 90% (70%≤value<90%). “D” represents a % inhibition value of equal or more than 90% (value≥90%). In Table 8, the fold-change values are reported as “A”, “B”, “C”, or “D”. “A” represents a fold-change value of equal to or less than 1 (value≤1). “B” represents a fold-change value of more than 1 and equal to or less than 2 (1<value≤2). “C” represents a fold-change value of more than 2 and equal to or less than 3 (2<value≤3). “D” represents a fold-change value of more than 3 (value>3).

[5] = test system: IL-6; assay: IL-6 inhibition assay, LPS-induced PBMCs or CD14+ monocytes, Meso Scale; details: 1 h pretreatment, 100 ng/mL LPS 18-24 h, supernatant
Procedure: as §6, §7

[6] = test system: IL-2; assay: IL-2 fold-change assay, anti-CD3 stimulated PBMCs, Mesoscale; details: PBMC, PBMCs on anti-human CD3 (OKT3) coated plates, 24 h, fold difference from the DMSO control
Procedure: For the IL-2 analysis, 96 well plates were precoated with 1 μg/mL anti-human CD3 antibody (OKT3, eBioscience Inc., San Diego, Calif.). After washing with PBS, the indicated compound was added (50 μL/well) followed by PBMCs diluted at 3-4 million cells/mL (150 μL/well). Plates were incubated for 24 h and the supernatants collected for Mesoscale IL-2 analysis. IL-2 activity is measured as fold difference from the DMSO control.
as §7

[7] = test system: MOLM-13 cells; assay: MOLM-13 cell viability assay (CellTiter-Glo); details: Homo sapiens, MOLM-13, 72 h, 3 days, % of DMSO control
Procedure: MOLM-13 cells were cultured in RPMI 1640 media supplemented with 10% fetal bovine serum, streptomycin and penicillin, and were plated in white walled 96-well plates at 2500 cells/well. Cells were incubated in DMSO (control) or the indicated compound for 3 days at 37° C. and 5% CO2. Following the incubation period, 100 μL of CellTiterGlow (CTG) reagent (CellTiter-Glo® Luminescent Cell Viability Assay, Promega (Madison, Wis.)) was added to each well. Following a 10 minutes incubation with shaking, luminescence was measured using the EnVision Multimode plate reader.
The MOLM-13 cell viability values as % DMSO are reported as “A”, “B”, “C”, or “D”. “A” represents a % viability value of less than 25% (value<25%). “B” represents a % viability value of equal to or more than 25% and less than 50% (25%≤value<50%). “C” represents a % viability value of equal to or more than 50% and less than 75% (50%≤value<75%). “D” represents a % viability value of equal or more than 75% (value≥75%).

[8] = test system: TNFα; assay: TNF-α inhibition assay, LPS-induced PBMCs or CD14+ monocytes, Meso Scale; details: 1 h pretreatment, 100 ng/mL LPS 18-24 h, supernatant
Procedure: as §6, §7

T2 sequence (P48729 whole entry): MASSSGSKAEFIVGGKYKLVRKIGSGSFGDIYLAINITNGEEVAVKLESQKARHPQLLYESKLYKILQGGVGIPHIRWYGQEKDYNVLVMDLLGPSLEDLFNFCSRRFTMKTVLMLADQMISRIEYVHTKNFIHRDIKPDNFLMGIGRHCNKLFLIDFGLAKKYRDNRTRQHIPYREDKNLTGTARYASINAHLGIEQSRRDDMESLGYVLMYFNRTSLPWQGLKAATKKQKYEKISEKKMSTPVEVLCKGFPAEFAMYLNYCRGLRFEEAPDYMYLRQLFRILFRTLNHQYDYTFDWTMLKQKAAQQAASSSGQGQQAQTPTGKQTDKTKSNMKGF
T2 sequence (Q96SW2 whole entry): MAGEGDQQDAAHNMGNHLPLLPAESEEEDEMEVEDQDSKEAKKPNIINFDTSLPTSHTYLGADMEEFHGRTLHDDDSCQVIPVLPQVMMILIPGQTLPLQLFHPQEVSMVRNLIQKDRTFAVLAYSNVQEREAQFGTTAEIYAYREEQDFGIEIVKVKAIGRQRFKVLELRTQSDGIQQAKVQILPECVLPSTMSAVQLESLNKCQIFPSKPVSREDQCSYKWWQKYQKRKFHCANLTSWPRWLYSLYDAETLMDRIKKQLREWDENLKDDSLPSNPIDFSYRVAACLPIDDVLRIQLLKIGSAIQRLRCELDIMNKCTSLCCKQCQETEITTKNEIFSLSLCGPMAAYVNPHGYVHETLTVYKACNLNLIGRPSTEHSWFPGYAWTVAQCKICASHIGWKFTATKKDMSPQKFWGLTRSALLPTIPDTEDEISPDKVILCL
T2 sequence (Q16531 whole entry partner): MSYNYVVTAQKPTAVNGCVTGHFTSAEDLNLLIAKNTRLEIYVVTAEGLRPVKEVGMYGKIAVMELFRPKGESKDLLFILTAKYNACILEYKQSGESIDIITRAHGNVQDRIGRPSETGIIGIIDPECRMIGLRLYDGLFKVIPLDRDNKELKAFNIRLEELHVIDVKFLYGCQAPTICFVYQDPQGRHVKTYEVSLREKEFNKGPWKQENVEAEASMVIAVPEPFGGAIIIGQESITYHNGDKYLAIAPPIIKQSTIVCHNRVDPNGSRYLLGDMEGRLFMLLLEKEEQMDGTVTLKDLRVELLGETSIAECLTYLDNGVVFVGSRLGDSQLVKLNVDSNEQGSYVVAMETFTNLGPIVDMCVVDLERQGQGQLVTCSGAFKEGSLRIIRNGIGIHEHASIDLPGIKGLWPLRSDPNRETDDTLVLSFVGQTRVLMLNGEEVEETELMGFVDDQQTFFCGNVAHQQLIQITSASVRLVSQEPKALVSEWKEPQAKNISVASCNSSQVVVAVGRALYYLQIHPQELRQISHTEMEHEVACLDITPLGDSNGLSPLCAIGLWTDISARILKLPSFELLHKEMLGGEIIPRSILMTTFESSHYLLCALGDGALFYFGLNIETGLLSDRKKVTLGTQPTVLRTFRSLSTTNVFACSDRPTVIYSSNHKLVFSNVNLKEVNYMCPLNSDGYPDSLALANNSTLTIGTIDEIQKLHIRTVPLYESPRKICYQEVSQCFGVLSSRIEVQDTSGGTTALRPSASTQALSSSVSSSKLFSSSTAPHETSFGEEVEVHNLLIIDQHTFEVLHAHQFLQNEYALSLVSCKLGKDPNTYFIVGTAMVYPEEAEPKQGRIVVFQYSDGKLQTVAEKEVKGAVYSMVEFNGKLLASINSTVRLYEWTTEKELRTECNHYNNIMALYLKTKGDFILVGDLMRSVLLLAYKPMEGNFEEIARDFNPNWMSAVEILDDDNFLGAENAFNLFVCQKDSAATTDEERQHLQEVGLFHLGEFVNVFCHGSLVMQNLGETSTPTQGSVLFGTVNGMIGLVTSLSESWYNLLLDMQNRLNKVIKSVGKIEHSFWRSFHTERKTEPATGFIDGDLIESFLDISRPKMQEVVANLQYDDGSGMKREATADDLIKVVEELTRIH
T1 sequence (Q13422 whole entry): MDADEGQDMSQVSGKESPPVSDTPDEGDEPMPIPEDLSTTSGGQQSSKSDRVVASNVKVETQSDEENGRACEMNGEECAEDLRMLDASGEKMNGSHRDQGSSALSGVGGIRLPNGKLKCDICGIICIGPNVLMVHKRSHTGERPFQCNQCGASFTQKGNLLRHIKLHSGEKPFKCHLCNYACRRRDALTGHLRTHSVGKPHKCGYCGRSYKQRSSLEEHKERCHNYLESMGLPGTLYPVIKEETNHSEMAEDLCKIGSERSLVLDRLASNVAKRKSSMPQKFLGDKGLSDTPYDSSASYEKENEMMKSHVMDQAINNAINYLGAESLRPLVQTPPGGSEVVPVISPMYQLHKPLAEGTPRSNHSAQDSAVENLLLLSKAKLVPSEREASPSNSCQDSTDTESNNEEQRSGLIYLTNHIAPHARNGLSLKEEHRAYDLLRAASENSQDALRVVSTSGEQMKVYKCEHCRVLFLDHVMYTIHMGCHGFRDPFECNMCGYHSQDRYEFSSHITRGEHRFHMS
T1 sequence (Q96SW2 whole entry): as the sequence (Q96SW2 whole entry) above
T1 sequence (Q16531 whole entry partner): as the sequence (Q16531 whole entry partner) above
T3 sequence (P15170 whole entry): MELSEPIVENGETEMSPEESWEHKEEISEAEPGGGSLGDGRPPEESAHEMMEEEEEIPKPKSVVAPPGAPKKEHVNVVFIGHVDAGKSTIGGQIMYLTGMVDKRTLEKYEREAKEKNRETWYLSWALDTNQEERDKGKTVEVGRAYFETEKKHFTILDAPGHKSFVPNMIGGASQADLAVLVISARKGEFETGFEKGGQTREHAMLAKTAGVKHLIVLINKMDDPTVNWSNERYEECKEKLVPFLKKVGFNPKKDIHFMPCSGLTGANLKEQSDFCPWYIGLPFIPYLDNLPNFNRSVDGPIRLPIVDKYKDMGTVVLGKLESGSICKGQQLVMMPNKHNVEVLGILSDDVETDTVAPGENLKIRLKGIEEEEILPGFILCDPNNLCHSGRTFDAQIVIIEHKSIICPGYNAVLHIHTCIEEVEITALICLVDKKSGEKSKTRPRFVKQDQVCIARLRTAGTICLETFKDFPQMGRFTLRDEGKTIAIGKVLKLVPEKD
T3 sequence (Q96SW2 whole entry): as the sequence (Q96SW2 whole entry) above
T3 sequence (Q16531 whole entry partner): as the sequence (Q16531 whole entry partner) above

| Structure (SMILES) | IKAROS % degradation at 1 µM [1] [%] | percent degradation at 1 µM [2] [%] | GSPT1 % Degradation at 1 μM [3] | inhibition at 10 µM [4] [%] | inhibition at 10 µM [5] [%] | fold induction at 10 µM [6] | viability at 10 µM [7] [%] | inhibition at 10 µM [8] [%] | IKAROS % Degradation at 10 μM ([1]; 10 μM) |
| --- | --- | --- | --- | --- | --- | --- | --- | --- | --- |
| O=C1CC[C@H](N2Cc3c(csc3COc3ccc(CN4CCOCC4)cc3)C2=O)C(=O)N1 [Compound 1, (S)-3-(1-((4-(morpholinomethyl)phenoxy)methyl)-4-oxo-4H-thieno[3,4-c]pyrrol-5(6H)-yl)piperidine-2,6-dione] | ≥ 75 | ≥ 75 | C (“C” represents a % degradation value of equal to or more than 50% and less than 75% (50%≤value <75%)) | > 90 | 50 to 70 | 1 to 2 | 50 to 75 | – | – |
| O=C1CC[C@H](N2Cc3c(OCc4ccc(CN5CCOCC5)cc4)csc3C2=O)C(=O)N1 [Compound 2, (S)-3-(3-((4-(morpholinomethyl)benzyl)oxy)-6-oxo-4H-thieno[2,3-c]pyrrol-5(6H)-yl)piperidine-2,6-dione] | – | – | B (“B” represents a % degradation value of equal to or more than 25% and less than 50% (25%≤value<50%)) | < 50 | – | 1 to 2 | – | < 50 | – |
| O=C1CCC(N2Cc3c(CCc4ccc(CN5CCOCC5)cc4)csc3C2=O)C(=O)N1 (stereo not shown) [Compound 4] | 25 to 50 | 25 to 50 | B (“B” represents a % degradation value of equal to or more than 25% and less than 50% (25%≤value<50%)) | – | – | 2 to 3 | – | – | – |
| CCN(CC)Cc1ccc(OCc2scc3c2CN([C@H]2CCC(=O)NC2=O)C3=O)cc1 [Compound 14, (S)-3-(1-((4-((diethylamino)methyl)phenoxy)methyl)-4-oxo-4H-thieno[3,4-c]pyrrol-5(6H)-yl)piperidine-2,6-dione] | – | 50 to 75 | – | 70 to 90 | < 50 | 2 to 3 | 50 to 75 | 70 to 90 | B (“B” represents a % degradation value of equal to or more than 25% and less than 50% (25%≤value<50%)) |
| CC1CN(Cc2ccc(OCc3scc4c3CN([C@H]3CCC(=O)NC3=O)C4=O)cc2)CC(C)O1 (stereo partly drawn) [Compound 17, (3S)-3-(1-((4-((2,6-dimethylmorpholino)methyl)phenoxy)methyl)-4-oxo-4H-thieno[3,4-c]pyrrol-5(6H)-yl)piperidine-2,6-dione] | 50 to 75 | ≥ 75 | – | 70 to 90 | < 50 | 1 to 2 | 50 to 75 | > 90 | – |
| CC1COCC(C)N1Cc1ccc(OCc2scc3c2CN([C@H]2CCC(=O)NC2=O)C3=O)cc1 (stereo partly drawn) [Compound 19, (3S)-3-(1-((4-((3,5-dimethylmorpholino)methyl)phenoxy)methyl)-4-oxo-4H-thieno[3,4-c]pyrrol-5(6H)-yl)piperidine-2,6-dione] | 50 to 75 | ≥ 75 | C (“C” represents a % degradation value of equal to or more than 50% and less than 75% (50%≤value <75%)) | 70 to 90 | < 50 | ≤ 1 | 50 to 75 | 70 to 90 | – |
